Data set [1] has as its system A2780 cells. The experiment in a line: Cell proliferation by clonogenic assay. Format: cell-based, human. Particulars: 24 hours treatment, 7 days growth. As for the experimental part:
Cell survival was assessed by clonogenic assay. Cells at […] confluence were trypsinized, rinsed, seeded onto 60-mm dishes (5×10^4 cells per dish), grown for 24 hours at 37° C., and treated afterward with H-4073 or HO-3867 for 24 hours. Nontreated cells served as controls. After treatment, the cells were washed twice with PBS, trypsinized, counted, and plated in 60-mm dishes in triplicate and incubated for an additional 7 days. The colonies were then stained with crystal violet (in ethyl alcohol) and counted using an automated colony counter (ColCount, Oxford Optronix). Each experiment was repeated at least five times.

Data set [2] relates to A2780 cells. The experiment in a line: Intracellular ROS by DCF fluorescence, A2780. It counts as cell-based, human. Particulars: 5 or 10 μM, 12 h. As to the method:
(§1) The ROS levels in cells treated with DAPs were determined using H2DCF-DA, a membrane-permeative fluorogenic probe. The acetate and acetoxymethyl ester groups of this probe are enzymatically cleaved inside living cells. The probe can then be oxidized by intracellular oxidants (ROS) to give a product, DCF, which emits a strong, green fluorescence (λex=504 nm; λem=529 nm). The fluorescence intensity is proportional to the level of cellular oxidants. Cells, grown to 80% confluence on 6-mm glass coverslips, were treated with 10 pM H-4073, HO-3867, H-4318, or HO-4200 for 12 h, followed by incubation with H2DCF-DA. The cells were further incubated in the dark for 20 min and washed with protein-free medium, and then fluorescence images were immediately captured with a Nikon Eclipse TE2000-U camera system using excitation/emission at 495/520 nm. The captured images were then analyzed using MetaMorph image analysis software.

In data set [3] the test system is A2780R, PA-1, SKOV3, OV4, and OVCAR3 human ovarian cancer cell lines. The experiment in a line: Cell viability by MTT assay, other ovarian cancer cell lines. Conditions: 10 μmol/L; 24 h. It counts as cell-based. As to the method: (§2) Cell viability was determined by a colorimetric assay using MTT. In the mitochondria of living cells, yellow MTT undergoes a reductive conversion to formazan, producing a purple color. Cells, grown to […] confluence in 75-mm flasks, were trypsinized, counted, seeded in 96-well plates with an average population of 7,000 cells per well, incubated overnight, and then treated with curcumin, H-4073, or HO-3867 for 24 hours. All experiments were done using eight replicates and, repeated at least thrice.
A general note: Formazan colour is commonly taken as a measure of viable cells.

In the next data set the test system is HSMC. The experiment in a line: Intracellular ROS by DCF fluorescence, HSMC. It counts as cell-based, human. Particulars: 10 μM, 12 h. As to the method: as §1, with “Cells, grown to 80% confluence on 6-mm glass coverslips, were treated with 10 pM H-4073, HO-3867, H-4318, or HO-4200 for 12 h, followed by incubation with H2DCF-DA.” left out
Data set [4] concerns hOSE cells, HSMC, and HAEC. The experiment in a line: Cytotoxicity of DAPs to noncancerous cells (MTT). It counts as cell-based, human. As to the method: (§3) Cell viability was determined by a colorimetric assay using MTT. In the mitochondria of living cells, yellow MTT undergoes a reductive conversion to formazan, giving a purple color. Cells, grown to […] confluence in 75-mm flasks, were trypsinized, counted, seeded in 96-well plates with an average population of 7000 cells/well, incubated overnight, and then treated with the DAPs (H-4073, HO-3867, H4318, or HO-4200; […]) for 24 h. All experiments were done using eight replicates and repeated at least three times. Cell viability was expressed as the percentage of MIT viability of untreated cells.

The subject of data set [5] is A2780, A2780R, MCF-7, HCT-116, PC-3, HepG2, A549, and SCC4 human cancer cell lines. The experiment in a line: Cytotoxicity of DAPs to cancer cells (MTT). Conditions: 10 μM, 24 h. It counts as cell-based. As to the method:
as §3

The next data set deals with hOSE cells. The experiment in a line: Cell viability by MTT assay, noncancerous hOSE control cells. It counts as cell-based, human. Particulars: 20 μmol/L. As for the experimental part: as §2
The nature of data set [6]: Superoxide radical-scavenging by EPR (xanthine/xanthine oxidase, DEPMPO competition). Conditions: 100 μM compound versus 1 mM DEPMPO. As for the experimental part: Electron paramagnetic resonance (EPR) spectroscopy was used to quantitatively determine the relative superoxide-scavenging ability of the DAPs in comparison with DEPMPO, a known superoxide scavenger. Superoxide radicals were generated using an aerated solution of PBS (pH 7.4) containing xanthine (0.2 mM), xanthine oxidase (0.02 U/ml), and diethylenetriamine pentaacetic acid (0.1 mM). The superoxide radicals (O2^−) generated by the xanhine-xanthine oxidase reaction were reacted with DEPMPO (1 mM) to form a paramagnetic adduct (DEPMPO-OOH), which was detected using X-band (9.8 GHz) EPR spectroscopy. In separate experimental groups, […], or SOD (500 U/ml) was added to the reaction mixture. […] The generation of the DEPMPO-OOH adduct was measured at 10 min after initiation of the reaction.
Both N-hydroxypyrroline and nitroxide have antioxidant properties including SOD- and catalase-mimetic activity. Therefore, we determined the superoxide radical-scavenging ability of DAPs using a competitive reaction in the presence of DEPMPO. Superoxide radicals were generated using an aerobic solution of xanthine and xanthine oxidase and detected as DEPMPO-OOH adduct by EPR spectroscopy. The DAP compounds (100 μM) were used to compete with 1 mM DEPMPO for the superoxide ions. SOD (4.2 μM) was used as a positive control.

The subject of data set [7] is A2780 cells. The experiment in a line: Cell viability by MTT assay, A2780 cells. Particulars: 24 hours, dose series. It counts as cell-based, human. As to the method:
as §2

Data set [8] has as its system A2780 and other cancer cells. The experiment in a line: Metabolic conversion to nitroxide in cancer cells (EPR). Format: in vitro ADME, human. Conditions: 37° C., EPR. The source says: The N-hydroxypyrroline (—NOH) moiety is capable of undergoing a reversible one-electron oxidation to its nitroxide form (—NO; FIG. 9A), which is paramagnetic and detectable by EPR spectroscopy.

For a further data set, the system named is A2780 and HSMC cells. The experiment in a line: Viability of cells exposed to stand-alone N-hydroxypyrroline or nitroxide (MTT). It counts as cell-based, human. Particulars: 24 h. As to the method:
as §3
To determine the role of the N-hydroxypyrroline function in the cytotoxicity, we additionally evaluated the effects of 3-CPH (a stand-alone analog of N-hydroxypyrroline) and 3-CP (a nitroxide version 3-CPH) on A27180 and HSMC cells. […] Overall the viability results implicate the diarylidenyl piperidone group in inducing cytotoxicity and the N-hydroxypyrroline group in protecting noncancerous cells.

For data set [9] the following is noted: compared with cisplatin and curcumin; cited from earlier work.

Entries after “also recorded” stand apart in the source; their conditions may differ.

For the compound `O=C1/C(=C/c2ccc(F)cc2)CNC/C1=C\c1ccc(F)cc1` [H-4073, (3E,5E)-3,5-Bis(4-fluorobenzylidene)piperidin-4-one], the “number of colonies (colony-forming ability)” value in the data set with A2780 cells [1] was “dose-dependent reduction in the number of colonies”. Also, the “intracellular ROS generation (DCF fluorescence) in A2780 cells” value with A2780 cells [2] was “induced significant ROS generation”. Also, in [3], the “cytotoxicity in other human ovarian cancer cell lines” value is “equally and significantly toxic”. In addition, the “intracellular ROS generation (DCF fluorescence) in HSMC” value (“intracellular ROS generation … in HSMC” below) with HSMC is listed as “induced significant ROS generation”. Also, in [4] (same dose for both compounds), the “viability of hOSE cells” value is “significantly reduced”. In addition, the “cell viability of human cancer cell lines” value in data set [5] is “substantial loss of cell viability; also recorded: higher toxicity compared to HO-3867 or HO-4200”. In addition, the “cytotoxicity to hOSE cells” value with hOSE cells was “significant cytotoxicity”. The “effect on the superoxide adduct level” value in data set [6] was “did not show any significant effect”. For the same compound, in the data set with A2780 cells [7], the “cytotoxicity, viability of A2780 cells” value is “significantly higher toxicity when compared with curcumin”. Also, the “EPR spectrum (nitroxide signal) after incubation with A2780 cells” value in data set [8] is “did not show any EPR signal”.
For the compound `CC1(C)CC(C(N)=O)C(C)(C)N1O` (stereo not shown) [3-CPH, N-hydroxy-3-carbamoyl proxyl], the “cell viability of A2780 and HSMC cells” value in the data set with A2780 and HSMC cells is recorded as “did not show any significant effect”.
Regarding `CC1(C)C=C(CN2C/C(=C\c3ccc(C(F)(F)F)cc3)C(=O)/C(=C/c3ccc(C(F)(F)F)cc3)C2)C(C)(C)N1O` [HO-4200, 1-[(1-oxyl-2,2,5,5-tetramethyl-2,5-dihydro-1H-pyrrol-3-yl)-methyl]-(3E,5E)-3,5-bis(4-trifluoromethylbenzylidene)piperidin-4-one], in the data set on A2780 cells [2], the “intracellular ROS generation (DCF fluorescence) in A2780 cells” value was “induced significant ROS generation”. In the data set on HSMC, the “amounts of ROS in HSMC compared to A2780 cells” value was “significantly lower amounts of ROS” and the “intracellular ROS generation … in HSMC” value is “induced significant ROS generation”. For the same compound, the “cell viability of noncancerous (healthy) human cell lines” value in [4] (10 NM, 24-h incubation) is recorded as “significantly less toxic”. The “cell viability of human cancer cell lines” value in data set [5] is “substantial loss of cell viability”. Moreover, the “diminution of the DEPMPO-OOH concentration” value in data set [6] was −50%.
Regarding `O=C1/C(=C/c2ccccc2F)CNC/C1=C\c1ccccc1F` [DAP-F(o)], in data set [9], the IC50 result was “lower than both cisplatin and curcumin”.
Consider `O=C1/C(=C/c2ccc(C(F)(F)F)cc2)CNC/C1=C\c1ccc(C(F)(F)F)cc1` [H-4318, (3E,5E)-3,5-bis(4-trifluoromethylbenzylidene)piperidin-4-one], for which, in the data set with A2780 cells [2], the “intracellular ROS generation (DCF fluorescence) in A2780 cells” value was “induced significant ROS generation”. Also, the “intracellular ROS generation … in HSMC” value in the data set on HSMC was “induced significant ROS generation”. In [5], the “cell viability of human cancer cell lines” value is listed as “substantial loss of cell viability; also recorded: higher toxicity compared to HO-3867 or HO-4200”. Besides, in data set [6], the “effect on the superoxide adduct level” value is reported as “did not show any significant effect”. Further, in data set [8], the “EPR spectrum (nitroxide signal) after incubation with A2780 cells” value was “did not show any EPR signal”.
For `CC1(C)CC(C(N)=O)C(C)(C)N1[O]` (stereo not shown) [3-CP, 3-carbamoyl proxyl], in the data set with A2780 and HSMC cells, the “cell viability of A2780 and HSMC cells” value is “did not show any significant effect”.
`COc1cc(/C=C/C(=O)CC(=O)/C=C/c2ccc(O)c(OC)c2)ccc1O` [curcumin, Curcumin, reference compound]: the “cytotoxicity, viability of A2780 cells” value with A2780 cells [7] is on record as “dose-dependent cytotoxicity”.

Values taken from patent US20120316203A1, “Compositions and Methods for Inhibition of Cancers” (THE OHIO STATE UNIVERSITY RESEARCH FOUNDATION, priority 2009, published 2012).
